Results as given in patent US10231965B2, “Molecules for administration to ROS1 mutant cancer cells” (Ignyta, Inc., priority 2014, dated 2019).
“Also recorded” adds a separate entry of the source.

Key:
[1] = Dose escalation study in human patients with advanced solid tumors: PK; assay type: in vivo
Description: (§1) A dose escalation study of N-[5-(3,5-difluorobenzyl)-1H-indazol-3-yl]-4-(4-methyl-piperazin-1-yl)-2-(tetrahydro-2H-pyran-4-ylamino) benzamide was conducted in human patients with advanced solid tumors. N-[5-(3,5-difluorobenzyl)-1H-indazol-3-yl]-4-(4-methyl-piperazin-1-yl)-2-(tetrahydro-2H-pyran-4-ylamino) benzamide was dosed orally once/day in a 4 day on, 3 day off schedule for 3 weeks, followed by a 7 day rest period, in continuous 28-day cycles (Schedule A); once/day in continuous 28-day cycles (Schedule B); and once/day in a 4 day on, 3 day off schedule without interruption in continuous 28-day cycles (Schedule C). A minimum of 3 patients were enrolled at each dose level. Endpoints include safety, PK, and tumor response by response evaluation criteria in solid tumors (RECIST).
(§2) Schedule A evaluated ascending oral doses of N-[5-(3,5-difluorobenzyl)-1H-indazol-3-yl]-4-(4-methyl-piperazin-1-yl)-2-(tetrahydro-2H-pyran-4-ylamino) benzamide once daily (fasted state) in a 4-day on, 3-day off schedule for 3 weeks, followed by a 7-day rest period, in continuous 28-day cycles. Dose escalation was conducted according to the standard ‘3+3’ scheme.
(§3) Schedule B evaluated ascending oral doses of N-[5-(3,5-difluorobenzyl)-1H-indazol-3-yl]-4-(4-methyl-piperazin-1-yl)-2-(tetrahydro-2H-pyran-4-ylamino) benzamide once daily (fed state) without rest, in continuous 28-day cycles.
(§4) Schedule C evaluated ascending oral doses of N-[5-(3,5-difluorobenzyl)-1H-indazol-3-yl]-4-(4-methyl-piperazin-1-yl)-2-(tetrahydro-2H-pyran-4-ylamino) benzamide once daily (fed state) in a 4-day on, 3-day off schedule for 4 weeks without rest, in continuous 28-day cycles.

[2] = tested on: human patients with advanced solid tumors; assay: Dose escalation study in human patients with advanced solid tumors: safety, adverse events; assay type: in vivo
Description: as §1, §2, §3, §4

[3] = tested on: Non-Small Cell Lung Cancer (NSCLC); assay: Dose escalation study: tumor response by RECIST, NSCLC patients; assay type: in vivo, human
Description: as §1, §2, §3, §4

Colorectal Cancer (CRC) = assay: Dose escalation study: tumor response by RECIST, CRC patient; assay type: in vivo, human; details: person, metastatic CRC, TrkA rearrangement, 1600 mg/m^2, Schedule A
Description: as §1, §2, §3, §4

Neuroblastoma (NB) = assay: Dose escalation study: tumor response by RECIST, neuroblastoma patient; assay type: in vivo, human; details: person, metastatic NB, ALK mutation, Schedule A
Description: as §1, §2
Schedule B evaluated ascending oral doses of N-[5-(3,5-difluorobenzyl)-1H-indazol-3-yl]-4-(4-methyl-piperazin-1-yl)-2-(tetrahydro-2H-pyran-4-ylamino) benzamide once daily (fed state) without rest, in continuous 28-day cycles. […]

advanced solid tumors = assay: Dose escalation study: tumor response by RECIST, all patients; assay type: in vivo, human
Description: as §1, §2, §3, §4

Compound: CN1CCN(c2ccc(C(=O)Nc3n[nH]c4ccc(Cc5cc(F)cc(F)c5)cc34)c(NC3CCOCC3)c2)CC1 [N-[5-(3,5-difluorobenzyl)-1H-indazol-3-yl]-4-(4-methyl-piperazin-1-yl)-2-(tetrahydro-2H-pyran-4-ylamino) benzamide]
- exposure at top dose (reason Schedule A was terminated) ([1]; Schedule A, 1600 mg/m2/day): plateau
- mean plasma half-life ([1]; human patients, oral once/day, following administration): 17 to 44 h
- Exposure versus dose ([1]; human patients, oral, dosing Schedule A): increased in an approximate dose proportional manner up to doses of 800 mg/m^2
- Abdominal pain G1 (%) ([2]; 25 patients, all schedules): 16%
- Abdominal pain G1, number of patients ([2]; 25 patients, all schedules): 4
- Abdominal pain G2 (%) ([2]; 25 patients, all schedules): 8%
- Abdominal pain G2, number of patients ([2]; 25 patients, all schedules): 2
- Abdominal pain Total (%) ([2]; 25 patients, all schedules): 24%
- Abdominal pain Total, number of patients ([2]; 25 patients, all schedules): 6
- Arthralgia G1 (%) ([2]; 25 patients, all schedules): 12%
- Arthralgia G1, number of patients ([2]; 25 patients, all schedules): 3
- Arthralgia G2 (%) ([2]; 25 patients, all schedules): 12%
- Arthralgia G2, number of patients ([2]; 25 patients, all schedules): 3
- Arthralgia Total (%) ([2]; 25 patients, all schedules): 24%
- Arthralgia Total, number of patients ([2]; 25 patients, all schedules): 6
- Asthenia G1 (%) ([2]; 25 patients, all schedules): 36%
- Asthenia G1, number of patients ([2]; 25 patients, all schedules): 9
- Asthenia G2 (%) ([2]; 25 patients, all schedules): 12%
- Asthenia G2, number of patients ([2]; 25 patients, all schedules): 3
- Asthenia Total (%) ([2]; 25 patients, all schedules): 52%
- Asthenia Total, number of patients ([2]; 25 patients, all schedules): 13
- Back Pain G1 (%) ([2]; 25 patients, all schedules): 20%
- Back Pain G1, number of patients ([2]; 25 patients, all schedules): 5
- Back Pain G2 (%) ([2]; 25 patients, all schedules): 4%
- Back Pain G2, number of patients ([2]; 25 patients, all schedules): 1
- Back Pain Total (%) ([2]; 25 patients, all schedules): 24%
- Back Pain Total, number of patients ([2]; 25 patients, all schedules): 6
- Cough G1 (%) ([2]; 25 patients, all schedules): 16%
- Cough G1, number of patients ([2]; 25 patients, all schedules): 4
- Cough G2 (%) ([2]; 25 patients, all schedules): 4%
- Cough G2, number of patients ([2]; 25 patients, all schedules): 1
- Cough Total (%) ([2]; 25 patients, all schedules): 20%
- Cough Total, number of patients ([2]; 25 patients, all schedules): 5
- Diarrhea G1 (%) ([2]; 25 patients, all schedules): 24%
- Diarrhea G1, number of patients ([2]; 25 patients, all schedules): 6
- Diarrhea G2 (%) ([2]; 25 patients, all schedules): 8%
- Diarrhea G2, number of patients ([2]; 25 patients, all schedules): 2
- Diarrhea Total (%) ([2]; 25 patients, all schedules): 32%
- Diarrhea Total, number of patients ([2]; 25 patients, all schedules): 8
- Dysgeusia G1 (%) ([2]; 25 patients, all schedules): 24%
- Dysgeusia G1, number of patients ([2]; 25 patients, all schedules): 6
- Dysgeusia G2 (%) ([2]; 25 patients, all schedules): 0 (0) %
- Dysgeusia G2, number of patients ([2]; 25 patients, all schedules): 0 (0)
- Dysgeusia Total (%) ([2]; 25 patients, all schedules): 24%
- Dysgeusia Total, number of patients ([2]; 25 patients, all schedules): 6
- Dyspnea G1 (%) ([2]; 25 patients, all schedules): 12%
- Dyspnea G1, number of patients ([2]; 25 patients, all schedules): 3
- Dyspnea G2 (%) ([2]; 25 patients, all schedules): 4%
- Dyspnea G2, number of patients ([2]; 25 patients, all schedules): 1
- Dyspnea Total (%) ([2]; 25 patients, all schedules): 24%
- Dyspnea Total, number of patients ([2]; 25 patients, all schedules): 6
- Headache G1 (%) ([2]; 25 patients, all schedules): 24%
- Headache G1, number of patients ([2]; 25 patients, all schedules): 6
- Headache G2 (%) ([2]; 25 patients, all schedules): 0 (0) %
- Headache G2, number of patients ([2]; 25 patients, all schedules): 0 (0)
- Headache Total (%) ([2]; 25 patients, all schedules): 24%
- Headache Total, number of patients ([2]; 25 patients, all schedules): 6
- Myalgia G1 (%) ([2]; 25 patients, all schedules): 24%
- Myalgia G1, number of patients ([2]; 25 patients, all schedules): 6
- Myalgia G2 (%) ([2]; 25 patients, all schedules): 4%
- Myalgia G2, number of patients ([2]; 25 patients, all schedules): 1
- Myalgia Total (%) ([2]; 25 patients, all schedules): 28%
- Myalgia Total, number of patients ([2]; 25 patients, all schedules): 7
- Nausea G1 (%) ([2]; 25 patients, all schedules): 56%
- Nausea G1, number of patients ([2]; 25 patients, all schedules): 14
- Nausea G2 (%) ([2]; 25 patients, all schedules): 8%
- Nausea G2, number of patients ([2]; 25 patients, all schedules): 2
- Nausea Total (%) ([2]; 25 patients, all schedules): 64%
- Nausea Total, number of patients ([2]; 25 patients, all schedules): 16
- Paresthesia G1 (%) ([2]; 25 patients, all schedules): 60%
- Paresthesia G1, number of patients ([2]; 25 patients, all schedules): 15
- Paresthesia G2 (%) ([2]; 25 patients, all schedules): 0 (0) %
- Paresthesia G2, number of patients ([2]; 25 patients, all schedules): 0 (0)
- Paresthesia Total (%) ([2]; 25 patients, all schedules): 60%
- Paresthesia Total, number of patients ([2]; 25 patients, all schedules): 15
- Pyrexia G1 (%) ([2]; 25 patients, all schedules): 24%
- Pyrexia G1, number of patients ([2]; 25 patients, all schedules): 6
- Pyrexia G2 (%) ([2]; 25 patients, all schedules): 0 (0) %
- Pyrexia G2, number of patients ([2]; 25 patients, all schedules): 0 (0)
- Pyrexia Total (%) ([2]; 25 patients, all schedules): 24%
- Pyrexia Total, number of patients ([2]; 25 patients, all schedules): 6
- Vomiting G1 (%) ([2]; 25 patients, all schedules): 28%
- Vomiting G1, number of patients ([2]; 25 patients, all schedules): 7
- Vomiting G2 (%) ([2]; 25 patients, all schedules): 8%
- Vomiting G2, number of patients ([2]; 25 patients, all schedules): 2
- Vomiting Total (%) ([2]; 25 patients, all schedules): 36%
- Vomiting Total, number of patients ([2]; 25 patients, all schedules): 9
- possibly drug-related Grade >3 AE observed (asthenia), number ([2]; Grade 3 in one patient, 1200 mg/m^2, Schedule A, subsided with dose reduction to 800 mg/m^2/day): 1
- severity of AEs ([2]; all dosing schedules tested): Most AEs<Grade 2
- tolerability ([2]; all dosing schedules tested, intermittent and daily continuous): well tolerated in all dosing schedules tested
- DLTs, study discontinuations due to AEs, drug-related SAEs ([2]; any dosing schedule): No drug limiting toxicities, study discontinuations due to adverse events, or drug-related serious adverse events were reported; also recorded: No DLTs, study discontinuations due to AEs, or drug-related SAEs were reported
- most common adverse events (mainly grade 1-2) considered possibly treatment-related ([2]; human patients, oral): nausea, paresthesia, vomiting, diarrhea, asthenia, myalgia, arthralgia, and dysgeusia
- possibly treatment-related grade 3 AE of asthenia, number ([2]; human patients, oral): one
- tumor response ([3]; person one, ROS1 rearrangement, s/p 3 cycles of chemotherapy, 400 mg/m2/day, Schedule C): partial response
- cycles until response achieved ([3]; person one, ROS1 rearrangement, 400 mg/m2/day, Schedule C): 1 cycle
- tumor response ([3]; person two, ROS1 rearrangement, s/p 2 cycles of chemotherapy, 400 mg/m2/day, Schedule C): complete response
- cycles until response achieved ([3]; person two, ROS1 rearrangement, 400 mg/m2/day, Schedule C): 2 cycles
- cycles until response achieved ([3]; person, ALK rearrangement, 1200 mg/m2/day, Schedule A): 4 cycles
- tumor response ([3]; person, CNS metastases, ROS1 rearrangement, s/p chemotherapy, erlotinib, 1200 mg/m^2/day, Schedule A): partial response
- cycles until response achieved ([3]; person, CNS metastases, ROS1 rearrangement, 1200 mg/m^2/day, Schedule A): 2 cycles
- tumor response ([3]; person, metastatic adenocarcinoma, ALK rearrangement, s/p chemotherapy, crizotinib, 1200 mg/m2/day, Schedule A): partial response
- tumor response (Colorectal Cancer (CRC); s/p chemotherapy, cetuximab): partial response
- cycles until response achieved (Colorectal Cancer (CRC)): 1 cycle
- duration of partial response before progressive disease (Colorectal Cancer (CRC)): 4 cycles
- cycles until response achieved (Neuroblastoma (NB); 200 to 1200 mg/m^2/day): 12 cycles
- tumor response (Neuroblastoma (NB); started at 200 mg/m^2/day, escalated to 1200 mg/m^2/day): partial response
- number of partial responses durable >9 cycles (advanced solid tumors; 25 patients evaluated): 3
- number of partial responses (advanced solid tumors; 25 patients evaluated, NSCLC, CRC and NB with TrkA, ROS1, and ALK molecular alterations): 5
- complete response (advanced solid tumors; 25 patients evaluated, patient with NSCLC with a ROS1 molecular alteration): a complete response
- number of patients with prolonged stable disease (11+ cycles) (advanced solid tumors; NSCLC and pancreatic adenocarcinoma): 2
